Earlier results on eight compounds are cited in patent US8361760B2, “Microbial production of 3-hydroxyacids from glucose and glycolate” (Massachusetts Institute of Technology, priority 2009, dated 2013).

For this data set, the system named is CoA-transferase. Details: Relative activity: concentration or dose not given beside the values. Particulars: CoA-transferase activity with carboxylic acid added; for Relative activity: relative to None = 100; for Specific Activity: None = 34.1 units/mg.

For `O=C(O)/C=C/CC(=O)O` [(E)-Glutaconate], the Relative activity is recorded as 94% and the “Specific Activity” value was 32.1 units/mg.

On to `O=C(O)CC[C@@H](O)C(=O)O` [(R)-2-Hydroxyglutarate], for which the Relative activity is 87% and the “Specific Activity” value was 29.6 units/mg.

On to `C[C@@H](O)C(=O)O` [(R)-Lactate], for which the Relative activity is on record as 27% and the “Specific Activity” value was 9.1 units/mg.

Turning to `C[C@H](O)C(=O)O` [(S)-Lactate], the Relative activity is listed as 46% and the “Specific Activity” value is given as 15.8 units/mg.

`C=CC(=O)O` [Acrylate]: the Relative activity is reported as 37% and the “Specific Activity” value is 12.7 units/mg.

Turning to `O=C(O)/C=C/C(=O)O` [Fumarate], the Relative activity was 96% and the “Specific Activity” value is reported as 32.8 units/mg.

With `CCC(=O)O` [Propionate], the Relative activity is 20% and the “Specific Activity” value is 6.8 units/mg.

In the case of `O=C(O)CCC(=O)O` [Succinate], the Relative activity is listed as 87% and the “Specific Activity” value is on record as 29.6 units/mg.
